Laboratory results: US20160355530A1, “HEPATITIS C INHIBITORS AND USES THEREOF” (AbbVie Inc., priority 2010, published 2016)
Like-named read-outs stand apart in the source and are kept apart here.

How the values were obtained:
[1] = test system: HCV 1b-BB7 subgenomic replicon; experiment: microbe, parasite or virus in culture; format: cell-based, HCV genotype 1b; conditions: Hepatitis C virus, stable replicon
[2] = target: T1, HCV NS5B polymerase 1a-H77 (Hepatitis C virus genotype 1a, UniProt P27958); experiment: biochemical; parameters: species or system HCV genotype 1a; conditions: enzyme, strain 1a H77; read-out: HCV Polymerase Strain 1a H77 IC50
T1 construct: six-histidine tag; made in house; host or cells: E. coli
Procedure, shortened: (§1)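 Incorporation of [3H]UTP (0.284 μM), alongside 20 μM each CTP and ATP, into RNA copied from a 5 nM 2.1 kb genotype 1b negative-strand template was measured after 3 h at 30° C using purified His-tagged NS5B truncated at residue 570. Product was spermine-precipitated, filtered and scintillation-counted; nonlinear regression gave IC50.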

[3] = test system: HCV NS5B polymerase 1a-H77-C316Y; experiment: biochemical; parameters: species or system HCV genotype 1a; conditions: ratio of enzyme IC50s, 1a H77-C316Y / 1a H77
Procedure, shortened: as §1

[4] = target: T2, HCV NS5B polymerase 1a-H77-C316Y (Hepatitis C virus genotype 1a, UniProt P27958, C2736Y); experiment: biochemical; parameters: species or system HCV genotype 1a
T2 construct: six-histidine tag; made in house; host or cells: E. coli
Procedure, shortened: as §1

[5] = target: T3, HCV NS5B polymerase 1b BK strain (Hepatitis C virus genotype 1b, UniProt P26663); experiment: HCV NS5B polymerase enzymatic inhibition assay, strain 1b BK; format: biochemical; conditions: enzyme, strain 1b BK; read-out: HCV Polymerase Strain 1b BK IC50
T3 construct: six-histidine tag; made in house; host or cells: E. coli
Procedure, shortened: as §1

[6] = test system: HCV 1a-H77 subgenomic replicon; experiment: microbe, parasite or virus in culture; format: cell-based, HCV genotype 1a; conditions: Hepatitis C virus, stable replicon
[7] = test system: chimeric replicon with genotype 3a NS5B; experiment: microbe, parasite or virus in culture; format: cell-based, HCV genotype 3a; conditions: Hepatitis C virus, read-out: 3a chimera 5% FBS EC50
[8] = test system: chimeric replicon with genotype 4a NS5B; experiment: microbe, parasite or virus in culture; format: cell-based, HCV genotype 4a; conditions: Hepatitis C virus, read-out: 4a chimera 5% FBS EC50
[9] = test system: chimeric replicon with genotype 2b NS5B; experiment: microbe, parasite or virus in culture; format: cell-based, HCV genotype 2b; conditions: Hepatitis C virus, read-out: 2b chimera 5% FBS EC50
[10] = test system: chimeric replicon with 2a-J6CF-derived NS5B; experiment: microbe, parasite or virus in culture; format: cell-based, HCV genotype 2a; conditions: Hepatitis C virus, read-out: 2a chimera 5% FBS EC50
[11] = strain 1b BB7, 5% FBS + 40% human plasma, read-out: 1b BB7 5% FBS + 40% Human Plasma EC50
[12] = strain 1b BB7, 5% FBS, no human plasma, read-out: 1b BB7 5% FBS EC50
[13] = strain 1b BB7, 5% FBS, read-out: 1b BB7 5% FBS EC50
[14] = 5% FBS, absence of human plasma, read-out: Stable Replicon 1a H77 5% FBS EC50
[15] = strain 1a H77, 5% FBS + 40% human plasma, read-out: 1a H77 5% FBS + 40% Human Plasma EC50
[16] = strain 1a H77, 5% FBS, no human plasma, read-out: 1a H77 5% FBS EC50
[17] = strain 1a H77, 5% FBS, read-out: 1a H77 5% FBS EC50

T1 sequence (P27958 2421-2990): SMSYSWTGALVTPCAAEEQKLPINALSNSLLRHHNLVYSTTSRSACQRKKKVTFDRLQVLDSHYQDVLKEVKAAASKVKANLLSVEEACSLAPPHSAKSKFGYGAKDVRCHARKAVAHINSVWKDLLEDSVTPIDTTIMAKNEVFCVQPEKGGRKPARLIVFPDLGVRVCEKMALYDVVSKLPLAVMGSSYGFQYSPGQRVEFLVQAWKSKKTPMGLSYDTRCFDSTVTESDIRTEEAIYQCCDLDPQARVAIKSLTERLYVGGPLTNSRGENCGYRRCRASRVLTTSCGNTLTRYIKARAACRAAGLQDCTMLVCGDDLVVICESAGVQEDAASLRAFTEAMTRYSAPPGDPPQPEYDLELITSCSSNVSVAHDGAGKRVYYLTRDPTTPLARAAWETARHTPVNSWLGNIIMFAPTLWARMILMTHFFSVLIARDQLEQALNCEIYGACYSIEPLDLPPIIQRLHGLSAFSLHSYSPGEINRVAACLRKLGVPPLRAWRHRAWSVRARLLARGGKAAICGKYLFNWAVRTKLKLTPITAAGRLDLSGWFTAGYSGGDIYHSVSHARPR
T2 sequence (P27958 2421-2990 C2736Y): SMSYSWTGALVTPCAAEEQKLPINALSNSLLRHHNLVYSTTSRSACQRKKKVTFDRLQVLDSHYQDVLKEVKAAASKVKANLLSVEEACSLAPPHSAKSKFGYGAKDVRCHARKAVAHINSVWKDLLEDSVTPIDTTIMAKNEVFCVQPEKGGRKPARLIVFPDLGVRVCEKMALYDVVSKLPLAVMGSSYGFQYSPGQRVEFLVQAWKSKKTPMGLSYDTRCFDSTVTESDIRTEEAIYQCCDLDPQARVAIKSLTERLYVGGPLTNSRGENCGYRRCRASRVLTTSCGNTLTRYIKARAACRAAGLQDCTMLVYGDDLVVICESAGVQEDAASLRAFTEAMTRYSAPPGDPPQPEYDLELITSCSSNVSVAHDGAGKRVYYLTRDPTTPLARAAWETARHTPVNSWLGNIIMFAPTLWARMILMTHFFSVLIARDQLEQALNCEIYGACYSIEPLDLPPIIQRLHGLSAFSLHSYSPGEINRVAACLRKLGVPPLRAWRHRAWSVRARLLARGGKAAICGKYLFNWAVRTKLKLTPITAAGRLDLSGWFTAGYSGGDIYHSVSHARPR
T3 sequence (P26663 2420-2989): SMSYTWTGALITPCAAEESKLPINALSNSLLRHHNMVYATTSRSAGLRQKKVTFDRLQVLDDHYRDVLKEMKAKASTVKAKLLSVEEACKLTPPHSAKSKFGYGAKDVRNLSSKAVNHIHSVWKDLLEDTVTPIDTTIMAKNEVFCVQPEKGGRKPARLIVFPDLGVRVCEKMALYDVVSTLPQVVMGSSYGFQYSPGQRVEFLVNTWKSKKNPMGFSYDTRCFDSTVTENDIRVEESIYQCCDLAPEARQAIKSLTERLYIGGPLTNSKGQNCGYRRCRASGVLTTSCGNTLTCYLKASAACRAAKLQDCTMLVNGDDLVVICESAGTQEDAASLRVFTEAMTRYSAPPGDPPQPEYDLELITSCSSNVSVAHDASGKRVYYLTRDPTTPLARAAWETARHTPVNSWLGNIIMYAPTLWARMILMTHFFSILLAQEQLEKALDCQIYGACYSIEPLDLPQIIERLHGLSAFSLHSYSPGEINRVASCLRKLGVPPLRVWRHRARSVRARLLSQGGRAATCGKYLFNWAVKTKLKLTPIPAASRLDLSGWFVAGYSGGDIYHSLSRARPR

Compound | EC50 [1, 11] [nM] | EC50 [1, 12] [nM] | EC50 [1, 13] [nM] | IC50 [2] [nM] | C316Y/1a Fold Resistance [3] [fold] | IC50 [4] [nM] | IC50 [5] [nM] | EC50 [6, 14] [nM] | EC50 [6, 15] [nM] | EC50 [6, 16] [nM] | EC50 [6, 17] [nM] | EC50 [7] [nM] | EC50 [8] [nM] | EC50 [9] [nM] | EC50 [10] [nM]
CCS(=O)(=O)CCN(c1cc2oc(-c3ccc(F)cc3)c(C3=NOCCN3)c2cc1C1CC1)S(C)(=O)=O [Example 142, N-[5-cyclopropyl-3-(5,6-dihydro-4H-1,2,4-oxadiazin-3-yl)-2-(4-fluorophenyl)-1-benzofuran-6-yl]-N-[2-(ethylsulfonyl)ethyl]methanesulfonamide] | 110 | 11 | 11 | 7 | 8 | 59 | 42 | 11.5 | 41 | 11.5 | 11.5 | 21 | 161 | 368 | 193
CCS(=O)(=O)CCCN(c1cc2oc(-c3ccc(F)cc3)c(C3=NOCCN3)c2cc1C1CC1)S(C)(=O)=O [Example 143, N-[5-cyclopropyl-3-(5,6-dihydro-4H-1,2,4-oxadiazin-3-yl)-2-(4-fluorophenyl)-1-benzofuran-6-yl]-N-[3-(ethylsulfonyl)propyl]methanesulfonamide] | 108 | 12 | 12 | 9 | 8 | 75 | 42 | 21.8 | 125 | 21.8 | 21.8 | 35 | 150 | 137 | 131
CC[S+]([O-])CCCN(c1cc2oc(-c3ccc(F)cc3)c(C3=NOCCN3)c2cc1C1CC1)S(C)(=O)=O (stereo not drawn) [Example 144, N-[5-cyclopropyl-3-(5,6-dihydro-4H-1,2,4-oxadiazin-3-yl)-2-(4-fluorophenyl)-1-benzofuran-6-yl]-N-[3-(ethylsulfinyl)propyl]methanesulfonamide] | 333 | 37 | 37 | 7 | 13 | 89 | 92 | 39 | 254 | 39 | 39 | 62 | 380 | 419 | 380
[2H]C1([2H])NC(c2c(-c3ccc(F)cc3)oc3cc(N(CCCCS(C)(=O)=O)S(C)(=O)=O)c(C4CC4)cc23)=NO1 [Example 150, N-{5-cyclopropyl-3-[(5,5-^2H2)-4,5-dihydro-1,2,4-oxadiazol-3-yl]-2-(4-fluorophenyl)-1-benzofuran-6-yl}-N-[4-(methylsulfonyl)butyl]methanesulfonamide] | 231 | 4 | 4 | 4 | 11 | 42 | 5 | 5 | 320 | 5 | 5 | 7 | 25 | 30.9 | 43
CC(C)CCN(c1cc2oc(-c3ccc(F)cc3)c(C3=NOCC(=O)N3)c2cc1C1CC1)S(C)(=O)=O [Example 162, N-[5-cyclopropyl-2-(4-fluorophenyl)-3-(5-oxo-5,6-dihydro-4H-1,2,4-oxadiazin-3-yl)-1-benzofuran-6-yl]-N-(3-methylbutyl)methanesulfonamide] | 9710 | 327 | 327 | 35.7 | 34 | 1200 | 711 | 248 | 10000 | 248 | 248 | 1000 | > 1000 | 1000 | 1000
CS(=O)(=O)N(CCCc1nnn[nH]1)c1cc2oc(-c3ccc(F)cc3)c(-c3ncc[nH]3)c2cc1C1CC1 [Example 174, N-[5-cyclopropyl-2-(4-fluorophenyl)-3-(1H-imidazol-2-yl)-1-benzofuran-6-yl]-N-[3-(1H-tetrazol-5-yl)propyl]methanesulfonamide] | 3690 | 192 | 192 | 3.5 | 12 | 40 | 18.6 | 320 | 4780 | 320 | 320 | 290 | > 1000 | 1000 | 1000
CS(=O)(=O)N(CCCc1noc(=O)[nH]1)c1cc2oc(-c3ccc(F)cc3)c(-c3ncc[nH]3)c2cc1C1CC1 [Example 175, N-[5-cyclopropyl-2-(4-fluorophenyl)-3-(1H-imidazol-2-yl)-1-benzofuran-6-yl]-N-[3-(5-oxo-4,5-dihydro-1,2,4-oxadiazol-3-yl)propyl]methanesulfonamide] | 570 | 62 | 62 | 6 | 7 | 43 | 25 | 79 | 1180 | 79 | 79 | 62 | 407 | 723 | 660
CS(=O)(=O)N(CCC/C(N)=N/O)c1cc2oc(-c3ccc(F)cc3)c(-c3ncc[nH]3)c2cc1C1CC1 [Example 176, (1Z)-4-{[5-cyclopropyl-2-(4-fluorophenyl)-3-(1H-imidazol-2-yl)-1-benzofuran-6-yl](methylsulfonyl)amino}-N′-hydroxybutanimidamide] | 80 | 20 | 20 | 5 | 27 | 134 | 33 | 36.5 | 133 | 36.5 | 36.5 | 12 | 159 | 155 | 146
CS(=O)(=O)N(CCCc1noc(=S)[nH]1)c1cc2oc(-c3ccc(F)cc3)c(-c3ncc[nH]3)c2cc1C1CC1 [Example 177, N-[5-cyclopropyl-2-(4-fluorophenyl)-3-(1H-imidazol-2-yl)-1-benzofuran-6-yl]-N-[3-(5-thioxo-4,5-dihydro-1,2,4-oxadiazol-3-yl)propyl]methanesulfonamide] | 461 | 23 | 23 | 4 | 10 | 38 | 36 | 32 | 520 | 32 | 32 | 30 | 401 | 606 | 427
CS(=O)(=O)N(CCCc1nnn[nH]1)c1cc2oc(-c3ccc(F)cc3)c(C3=NOCCN3)c2cc1C1CC1 [Example 180, N-[5-cyclopropyl-3-(5,6-dihydro-4H-1,2,4-oxadiazin-3-yl)-2-(4-fluorophenyl)-1-benzofuran-6-yl]-N-[3-(1H-tetrazol-5-yl)propyl]methanesulfonamide] | 10000 | 1000 | 1000 | 6 | 6 | 34 | 32 | 1000 | 10000 | 1000 | 1000 | 1000 | > 1000 | 1000 | 1000
